One data set concerns apoptosis. In words: TUNEL assay of endometriotic lesions. Type of data set: in vivo, mice. To be noted: 3 weeks, control 8.7 ± 1.3. The protocol: The TUNEL assay is another immunohistological method used to show the amount of apoptosis, or programmed cell death, present in the uterine tissues. The TUNEL assay was performed on sections of uterine tissue according to manufacturer's instructions using ApopTag Fluorescein In Situ Apoptosis Detection Kit (# S7160, Millipore). The TUNEL assay, which identifies cells undergoing apoptosis, was semiquantitatively analyzed using areas of 0.02 mm^2 (3 different areas counted from each section, with sections obtained from 4 different lesions), and semiquantitatively analyzed.

For the next data set, the system named is ESR1. In words: Immunohistochemistry of endometriotic lesions, ESR1. As to conditions: 3 weeks; for % of ESR1 positive cells/total cells/0.007 mm^2, Stroma: control 45.6 ± 6.9; for % of ESR1 positive cells/total cells/0.007 mm^2, Epithelium: control 79.1 ± 3.7. Type of data set: in vivo, mice. The text has this:
(§1) The presence and location of different proteins in the tissues obtained from the recipient mice. Samples of uterine tissue were isolated from the recipient mice, fixed by standard histological methods, and embedded in paraffin. Thin sections (5 μm) of the paraffin-embedded tissues were screened with standard immunohistochemical methods using antibodies to identify the expression of in the uterine tissues.
(§2) Primary antibodies that recognized MKI67 (Ki67), PECAM1 (CD31), ESR1, PGR, p-CHUK (IKK), p-STAT3, NOS2 (iNOS) and PTGS2 (COX2), and Vectastain Elite ABC Kit (# PK-6101), Mouse on Mouse Basic Kit (# BMK-2202, Vector laboratories) or DyLight-conjugated secondary antibody (#711-516-152, Jackson ImmunoResearch Lab) were used to show the presence of the proteins in the tissues, which were examined under microscopes.
(§3) The primary antibodies used in these analyses were: anti-MKI67 (Ki67, 1:200 dilution, 550609, BD Biosciences), anti-PECAM1 (CD31, 1:100 dilution, ab28364, Abcam), anti-ESR1 (1:100 dilution, sc-542, Santa Cruz Biotechnology), anti-PGR (1:200 dilution, RB-9017-P0, Thermo Scientific), anti-p-CHUK (IKK, 1:150 dilution, 2697, Cell Signaling Technology), anti-p-STAT3 (1:50 dilution, 9145, Cell Signaling Technology), anti-NOS2 (iNOS, 1:50 dilution, 610333, BD Biosciences) and anti-PTGS2 (COX2, 1:50 dilution, RM-9121, Thermo Scientific).
(§4) The expression of MKI67, ESR1, PGR, p-CHUK, p-STAT3, NOS2 and PTGS2 proteins in uterine tissues, as determined by immunohistochemical analysis of uterine tissue sections, was semiquantitatively analyzed. Levels of apoptosis were analyzed by TUNEL assay and also semiquantitatively analyzed. Histological sections were obtained from 4 different lesions. For each section, three different areas measuring 0.007 mm^2 were chosen. In each of those areas, the total number of epithelial or stromal cells was counted, as was the number of cells that tested positive for expressing MKI67 (a marker of cellular proliferation), steroid receptors ESR1 and PGR, and inflammatory signaling molecules p-CHUK, p-STAT3, NOS2 and PTGS2 proteins.

Another data set concerns PGR. In words: Immunohistochemistry of endometriotic lesions, PGR. Format: in vivo, mice. To be noted: 3 weeks; for % of PGR positive cells/total cells/0.007 mm^2, Stroma: control 47.2 ± 4.0; for % of PGR positive cells/total cells/0.007 mm^2, Epithelium: control 76.7 ± 7.0.
Text: as §1, §2, §3, §4

The next data set deals with female mice. In words: Effect of oral niclosamide on reproductive function (Study 2). Type of data set: in vivo. On the procedure:
The sham surgery was performed following the same steps as the endometriosis surgery except that no donor tissues were implanted onto the peritoneal walls of those mice; only sutures were applied to the peritoneal walls.
The recipient mice continued receiving oral daily niclosamide treatments until mouse pups were born, after which niclosamide treatment was discontinued. Three weeks after the pups were born, on postnatal day (PND) 21, the recipient mice were necropsied and the pups were weaned.
For each mated mouse, the following parameters were measured and recorded: the time of the formation of the vaginal plug after mating (days); the length of time that the mated mouse gestated or was pregnant (days); the number of pups born to each mated mouse; and the size and volume of the endometriotic lesions harvested from the mice after necropsy. Tissues were harvested from the mice, including endometriotic lesions and peritoneal walls to analyze the expression of proteins and genes of interest.
For each pup born to a mated mouse, its weight (g) at birth and on PND 21 was measured.

In the next data set the test system is endometriotic lesions. In words: Endometriotic lesions examined on PND 21 (Study 2). Format: in vivo, mice. As to conditions: 200 mg/kg b.w./day; examined 3 weeks after the final dosage. The protocol:
The sham surgery was performed following the same steps as the endometriosis surgery except that no donor tissues were implanted onto the peritoneal walls of those mice; only sutures were applied to the peritoneal walls. […] The recipient mice continued receiving oral daily niclosamide treatments until mouse pups were born, after which niclosamide treatment was discontinued. Three weeks after the pups were born, on postnatal day (PND) 21, the recipient mice were necropsied and the pups were weaned. For each mated mouse, the following parameters were measured and recorded: the time of the formation of the vaginal plug after mating (days); the length of time that the mated mouse gestated or was pregnant (days); the number of pups born to each mated mouse; and the size and volume of the endometriotic lesions harvested from the mice after necropsy. Tissues were harvested from the mice, including endometriotic lesions and peritoneal walls to analyze the expression of proteins and genes of interest.

For data set [1] the following is noted: ORGANIZATION WH, 2002; cited from earlier work.

On to `O=C(Nc1ccc([N+](=O)[O-])cc1Cl)c1cc(Cl)ccc1O` [niclosamide, 5-chloro-N-(2-chloro-4-nitrophenyl)-2-hydroxybenzamide], for which the “Cell number of TUNEL positive cells/0.02 mm^2” value in the data set with apoptosis (100 mg/kg b.w./day oral) worked out at 8.2 ± 1.3 cells/0.02 mm^2; with apoptosis (200 mg/kg b.w./day oral) it was 7.8 ± 1.0 cells/0.02 mm^2. The results for the “% of ESR1 positive cells/total cells/0.007 mm^2, Stroma” value with ESR1 (100 mg/kg b.w./day oral) and in the data set with ESR1 (200 mg/kg b.w./day oral) were 55.9 ± 5.5% and 37.7 ± 5.7%, respectively. The results for the “% of ESR1 positive cells/total cells/0.007 mm^2, Epithelium” value in the data set with ESR1 (100 mg/kg b.w./day oral) and with ESR1 (200 mg/kg b.w./day oral) were 96.6 ± 2.0% and 82.6 ± 5.6%, respectively. For the same compound, the “% of PGR positive cells/total cells/0.007 mm^2, Stroma” value in the data set with PGR (100 mg/kg b.w./day oral) stood at 58.1 ± 5.2%; in the data set on PGR (200 mg/kg b.w./day oral) it was 50.1 ± 6.9%. The results for the “% of PGR positive cells/total cells/0.007 mm^2, Epithelium” value in the data set on PGR (100 mg/kg b.w./day oral) and in the data set on PGR (200 mg/kg b.w./day oral) were 60.4 ± 10.7% and 69.9 ± 12.2%, respectively. For the same compound, the “time to receive vaginal plug, between the groups” value in the data set on female mice (0 or 200 mg/kg b.w./day oral, mated after 4 days of treatment) is reported as “No significant differences”. Moreover, the “pregnancy and birth in recipient mice exposed to niclosamide” value with female mice (200 mg/kg b.w./day oral until pups were born) was “became pregnant and gave birth”. Also, the “gestational length, number of pups, and weight of pups at birth and on PND21” value with female mice (200 mg/kg b.w./day oral until pups were born vs 0) was “did not cause any differences”. In addition, the “lesion sizes on PND 21” value with endometriotic lesions is recorded as “maintained the reduction of lesion sizes”. In data set [1], the water solubility is below 20 µM.

(Values after patent publication US20200315996A1 (Board of Trustees, Southern Illinois University, priority 2016, published 2020).)
